Laboratory results taken from paper PMC9495262, “In Vitro Antiparasitic Activities of Monovalent Ionophore Compounds for Human and Canine Leishmaniases” (Animals : an Open Access Journal from MDPI, 2022).
Where two headings read alike, the source gives them in different places.

Columns and labels:
[1] = test system: L. infantum promastigotes; assay: Leishmania promastigote viability assay (MTT), L. infantum; format: cell-based; settings: mean ± SD of three experiments in duplicate
Procedure: (§1) Promastigote stages of L. infantum strain (MHOM/TN/80/IPT1) (WHO international reference strain, kindly provided by Dr. M. Gramiccia and Dr. T. Di Muccio, ISS, Roma, Italy), and clinical isolates of L. tropica (MHOM/SY/2012/ISS3130) and L. braziliensis (MHOM/PE/2006/ISS2848) (kindly provided by Dr. R. Grande, Sacco Hospital, Milan, Italy), were cultured in Schneider’s Drosophila medium (Lonza) supplemented with 2 mM L-glutamine and 10% heat-inactivated FBS (HyClone) at 24 °C.
(§2) To estimate the 50% inhibitory concentration (IC50) of compounds on both cells and Leishmania promastigotes, the MTT (3-[4,5-dimethylthiazol-2-yl]-2,5-diphenyltetrazolium bromide) assay was used with minor modifications. Briefly, monensin and nigericin were dissolved in ethanol (10 mg/mL), and salinomycin and amphotericin B in DMSO (10 mg/mL). All compounds were then diluted with medium to achieve the required concentrations (final DMSO or ethanol concentration <1%, non-toxic to the parasite or cells). The complete medium used for the antileishmanial activity assay was RPMI 1640 (EuroClone) supplemented with 10% heat-inactivated FBS (EuroClone), 20 mM HEPES, and 2 mM L -glutamine. Drugs were added to 96-well round-bottom microplates and seven serial dilutions were performed. Amphotericin B was used as the reference anti-Leishmania drug. Subsequently, 100 μL of the parasite suspension (5 × 10^6 parasites/mL) was dispensed into the plates. After 72h of incubation at 24 °C, 20 μL of MTT solution (5 mg/mL in PBS) was added into each well. After 3 h in the dark, the plates were centrifuged, the supernatants discarded, and the formazan crystals in the pellet dissolved in 100 μL of lysing buffer (20% w/v of a solution of SDS -Merck-, and 40% of N,N-dimethylformamide -Merck- in H2O).
(§3) For cell cytotoxicity experiments, 100 μL (5 × 10 ^5 cells/mL) of THP-1 cells were plated in 96-well flat-bottom microplates and treated with 0.1 µM phorbol myristate acetate (PMA, Merck, Kenilworth, NJ, USA) for 72 h to achieve differentiation into macrophages. Cells were then treated with different drug concentrations (60–0.4 µM). After 72 h, 20 μL of the MTT solution was added into each well. After 3 h in the dark, the supernatants were discarded and the formazan crystals dissolved in 100 μL of the same lysing buffer described above. The absorbance was then measured spectrophotometrically at 550 nm (reference wavelength 650 nm). The results are expressed as IC50, which is the dose of compound necessary to inhibit parasite and cell growth by 50%. The IC50 values were extrapolated from nonlinear regression analysis of the concentration–response curve using the software Gen5 1.10 provided with the Synergy 4 (BioTek, Winooski, VT, USA) reader. Data are the mean ± standard deviation of individual experiments performed in duplicate.

[2] = Cytotoxicity (MTT) on PMA-differentiated THP-1 macrophages; format: cell-based; settings: human
Procedure: THP-1 cells (human acute monocytic leukemia cell line) were maintained in Roswell Park Memorial Institute (RPMI) 1640 medium supplemented with 10% fetal bovine serum (FBS, EuroClone), 50 µM 2-mercaptoethanol, 20 mM HEPES, and 2 mM L-glutamine, at 37 °C in 5% CO2.
as §3

[3] = test system: L. infantum intracellular amastigotes; assay: Intracellular amastigote susceptibility assay in human dTHP-1 (Giemsa counting); format: cell-based, Leishmania infantum; settings: for IC50: Leishmania infantum, read-out: Amastigotes IC50; for SI (Selectivity index = IC50 dTHP-1/IC50 amastigotes): ratio of cytotoxicity on dTHP-1 to activity on L. infantum amastigotes
Procedure: For Leishmania spp. infections, 100 μL of THP-1 cells (5 × 10^5 cells/mL) or canine macrophages (2 × 10^6 cells/mL) were plated in 16-chamber Lab-Tek culture slides (Nunc) and further treated with 0.1 µM of PMA for 72 h to achieve differentiation into macrophages. Cells were then washed with PBS and infected with stationary phase L. infantum promastigotes at a macrophage:promastigote ratio of 1:10. After 24 h, cell monolayers were extensively washed with PBS to remove non-internalized promastigotes and observed under an inverted light microscope to evaluate both the cellular size and the cellular morphology. Infected cells were then incubated in the presence of test compounds for 72 h. Infected and/or treated cells were then fixed with 100% methanol and stained with Giemsa at room temperature. The percentage of infected macrophages in treated and non-treated wells was determined by counting 200–300 macrophages/well under a light microscope. About 10 random microscopic fields/well were observed. The number of infected macrophages in the untreated control samples was considered 100% for calculating the percentage of infection in drug treated samples. IC50 values were then calculated. Data are the mean ± standard deviation of individual experiments performed in triplicate.
Next, human macrophages (dTHP-1) were infected with stationary-phase promastigotes of L. infantum at a cell:promastigote ratio of 1:10 for 24 h, and allowed to differentiate into intracellular parasite forms. After the removal of free promastigotes, the infected macrophages were incubated for 72 h in the presence of the ionophores at different concentrations. A significant reduction in the number of infected macrophages was observed after treatment with all the compounds tested. The inhibition was dose-dependent with IC50s between 1 and 2 µM (Table 3).

L. tropica promastigotes = assay: Leishmania promastigote viability assay (MTT), L. tropica; format: cell-based; settings: mean ± SD of three experiments in duplicate
Procedure: as §1, §2, §3

[4] = test system: L. braziliensis promastigotes; assay: Leishmania promastigote viability assay (MTT), L. braziliensis; format: cell-based; settings: mean ± SD of three experiments in duplicate
Procedure: as §1, §2, §3

in vitro = format: cell-based; settings: human
Procedure: as §3
Non-infected human macrophages (PMA-differentiated THP-1, dTHP-1) and human dermal fibroblasts (HDF) were incubated in the presence of different concentrations of ionophores to determine the nontoxic concentration for mammalian cells.

[5] = test system: all Leishmania spp. promastigotes; assay: Promastigote viability assay, all Leishmania species tested (summary statements); format: cell-based; settings: read-out: IC50 against all Leishmania spp. promastigotes tested
Procedure: as §1
as §2, with “After 3 h in the dark, the plates were centrifuged, the supernatants discarded, and the formazan crystals in the pellet dissolved in 100 μL of lysing buffer (20% w/v of a solution of SDS -Merck-, and 40% of N,N-dimethylformamide -Merck- in H2O).” left out
For cell cytotoxicity experiments, 100 μL (5 × 10 ^5 cells/mL) of THP-1 cells were plated in 96-well flat-bottom microplates and treated with 0.1 µM phorbol myristate acetate (PMA, Merck, Kenilworth, NJ, USA) for 72 h to achieve differentiation into macrophages. […] The absorbance was then measured spectrophotometrically at 550 nm (reference wavelength 650 nm). […] The IC50 values were extrapolated from nonlinear regression analysis of the concentration–response curve using the software Gen5 1.10 provided with the Synergy 4 (BioTek, Winooski, VT, USA) reader. […]

[6] = test system: L. donovani intracellular amastigotes; parameters: method as in PMID 21358812; settings: read-out: IC50 against intracellular amastigotes, ex vivo splenic explant model of L. donovani infection; cited from earlier work
[7] = test system: promastigotes of L. donovani; parameters: method as in PMID 12864731; settings: previous work; read-out: IC50 against promastigotes of L. donovani; cited from earlier work
[8] = Leishmania infantum, MTT assay after 72 h of treatment, read-out: IC50 against L. infantum promastigotes
[9] = non-infected PMA-differentiated THP-1 macrophages (dTHP-1), non-infected PMA-differentiated THP-1, MTT assay after 72 h of treatment, read-out: CC50 dTHP-1
[10] = L. infantum-infected dTHP-1 treated for 72 h, Giemsa, percentage of infected cells
[11] = Leishmania tropica, MTT assay after 72 h of treatment, read-out: IC50 against L. tropica promastigotes
[12] = Leishmania braziliensis, MTT assay after 72 h of treatment, read-out: IC50 against L. braziliensis promastigotes
[13] = L. infantum, L. tropica and L. braziliensis promastigotes, summary statement

SMILES	IC50 [1, 8]	CC50 at 72 h [2, 9]	IC50 [3, 10]	SI (Selectivity index = IC50 dTHP-1/IC50 amastigotes) [3]	IC50 (L. tropica promastigotes; [11])	IC50 [4, 12]	CC50 at 72 h [2]	CC50 at 72 h (in vitro)	IC50 [5, 13]	IC50 [6]	IC50 ([1]; Leishmania infantum, 72 h, read-out: IC50 against L. infantum promastigotes, MTT assay after 72 h of treatment)	IC50 ([1]; read-out: IC50 against L. infantum promastigotes, MTT assay after 72 h of treatment)	IC50 ([3]; 72 h)	IC50 [7]	IC50 (L. tropica promastigotes; Leishmania tropica, 72 h, read-out: IC50 against L. tropica promastigotes, MTT assay after 72 h of treatment)	IC50 (L. tropica promastigotes; read-out: IC50 against L. tropica promastigotes, MTT assay after 72 h of treatment)	IC50 ([4]; Leishmania braziliensis, 72 h, read-out: IC50 against L. braziliensis promastigotes, MTT assay after 72 h of treatment)	IC50 ([4]; read-out: IC50 against L. braziliensis promastigotes, MTT assay after 72 h of treatment)	IC50 [5]
C[C@@H]1[C@H](O)[C@@H](C)/C=C/C=C/C=C/C=C/C=C/C=C/C=C/[C@H](O[C@@H]2O[C@H](C)[C@@H](O)[C@H](N)[C@@H]2O)C[C@@H]2O[C@](O)(C[C@@H](O)C[C@@H](O)[C@H](O)CC[C@@H](O)C[C@@H](O)CC(=O)O[C@H]1C)C[C@H](O)[C@H]2C(=O)O [Amphotericin B]	120 ± 20 nM	> 20000 nM	180 ± 30 nM	>111.1	100 ± 20 nM	80 ± 20 nM	–	–	–	–	–	–	–	–	–	–	–	–	–
CO[C@@H]1C[C@@H](C[C@H]2CC[C@H](C)[C@H]([C@@H](C)C(=O)O)O2)O[C@]2(O[C@](C)([C@H]3CC[C@@](C)([C@@H]4O[C@@H]([C@H]5O[C@@](O)(CO)[C@H](C)C[C@@H]5C)C[C@@H]4C)O3)C[C@H]2C)[C@@H]1C [Nigericin, nigericin]	370 ± 40 nM	–	1790 ± 830 nM	>33.5	230 ± 50 nM	780 ± 80 nM	> 60000 nM	> 60000 nM	< 1000 nM	–	–	–	–	–	–	–	–	–	–
CC[C@@]1([C@@H]2O[C@@H]([C@H]3O[C@@](O)(CO)[C@H](C)C[C@@H]3C)C[C@@H]2C)CC[C@H]([C@]2(C)CC[C@]3(C[C@H](O)[C@@H](C)[C@@H]([C@@H](C)[C@@H](OC)[C@H](C)C(=O)O)O3)O2)O1 [Monensin, monensin]	630 ± 110 nM	–	1670 ± 430 nM	>35.9	350 ± 170 nM	270 ± 130 nM	> 60000 nM	> 60000 nM	< 1000 nM	850 nM	–	–	–	–	–	–	–	–	–
CC[C@@H](C(=O)[C@@H](C)[C@@H](O)[C@H](C)[C@@H]1O[C@@H]([C@@H](CC)C(=O)O)CC[C@@H]1C)[C@H]1O[C@]2(C=C[C@@H](O)[C@]3(CC[C@@](C)([C@H]4CC[C@](O)(CC)[C@H](C)O4)O3)O2)[C@H](C)C[C@@H]1C [Salinomycin, salinomycin]	–	32100 ± 5300 nM	–	16.6	–	–	–	> 60000 nM	–	–	~8000 nM	7980 ± 640 nM	1930 ± 100 nM	~1700 nM	~5000 nM	4530 ± 600 nM	~5000 nM	5080 ± 1740 nM	> 4000 nM
